Source: publication PMC7914897, “Cytotoxic Potential of a-Azepano- and 3-Amino-3,4-SeCo-Triterpenoids” (International Journal of Molecular Sciences, 2021)
Read-outs that look alike come from different tables or passages of the source.

How the values were obtained:
LOX IMVI (Melanoma) = experiment: NCI-60 screen (SRB, 48 h); format: cell-based; conditions: Homo sapiens
MDA-MB-435 (Melanoma) = experiment: NCI-60 screen (SRB, 48 h); format: cell-based
OVCAR-4 (Ovarian cancer) = experiment: NCI-60 screen (SRB, 48 h); format: cell-based; conditions: Homo sapiens
Leukemia subpanel = experiment: cells; conditions: Homo sapiens
CNS cancer subpanel = experiment: NCI-60 screen, subpanel; conditions: Homo sapiens
K-562 (Leukemia) = experiment: NCI-60 screen (SRB, 48 h); conditions: Homo sapiens
RPMI-8226 (Leukemia) = experiment: NCI-60 screen (SRB, 48 h); conditions: Homo sapiens
HOP-92 (NSC lung cancer) = experiment: NCI-60 screen (SRB, 48 h); conditions: Homo sapiens
[1] = system: NCI-H226 (NSC lung cancer); experiment: NCI-60 screen (SRB, 48 h); conditions: Homo sapiens
[2] = system: NCI-H23 (NSC lung cancer); experiment: NCI-60 screen (SRB, 48 h); conditions: Homo sapiens
HCC-2998 (Colon cancer) = experiment: NCI-60 screen (SRB, 48 h); conditions: Homo sapiens
HCT-15 (Colon cancer) = experiment: NCI-60 screen (SRB, 48 h); conditions: Homo sapiens
SF-539 (CNS cancer) = experiment: NCI-60 screen (SRB, 48 h); conditions: Homo sapiens
U251 (CNS cancer) = experiment: NCI-60 screen (SRB, 48 h); conditions: Homo sapiens
MALME-3M (Melanoma) = experiment: NCI-60 screen (SRB, 48 h); conditions: Homo sapiens
M14 (Melanoma) = experiment: NCI-60 screen (SRB, 48 h); conditions: Homo sapiens
SK-MEL-2 (Melanoma) = experiment: NCI-60 screen (SRB, 48 h); conditions: Homo sapiens
SK-MEL-28 (Melanoma) = experiment: NCI-60 screen (SRB, 48 h); conditions: Homo sapiens
UACC-257 (Melanoma) = experiment: NCI-60 screen (SRB, 48 h); conditions: Homo sapiens
OVCAR-5 (Ovarian cancer) = experiment: NCI-60 screen (SRB, 48 h)
OVCAR-8 (Ovarian cancer) = experiment: NCI-60 screen (SRB, 48 h); conditions: Homo sapiens
[3] = system: NCI/ADR-RES (Ovarian cancer); experiment: NCI-60 screen (SRB, 48 h); conditions: Homo sapiens
SK-OV-3 (Ovarian cancer) = experiment: NCI-60 screen (SRB, 48 h); conditions: Homo sapiens
SN12C (Renal cancer) = experiment: NCI-60 screen (SRB, 48 h); conditions: Homo sapiens
[4] = system: MDA-MB-31/ATCC (Breast cancer); experiment: NCI-60 screen (SRB, 48 h); conditions: Homo sapiens
HS 578T (Breast cancer) = experiment: NCI-60 screen (SRB, 48 h); conditions: Homo sapiens
[5] = system: panel of approximately 60 cancer cell lines; experiment: NCI-60 screen (SRB, 48 h), full panel

CC1(C)NCCC[C@]2(C)[C@H]3C=CC4=C5C[C@@](C)(CO)CC[C@]5(C)CC[C@@]4(C)[C@]3(C)CC[C@@H]12 [Compound 6, azepano-glycyrrhetol-diene]
IC (TGI) (LOX IMVI (Melanoma); 48 h): 6.76 µM
GI50 (LOX IMVI (Melanoma); read-out: GI50): 2.49 µM
CC50 (LOX IMVI (Melanoma); read-out: LC50 (the source's name)): 29 µM
GI50 (MDA-MB-435 (Melanoma); Homo sapiens, MDA-MB-435): 3.76 µM
IC (TGI) (MDA-MB-435 (Melanoma); Homo sapiens, MDA-MB-435, 48 h, read-out: TGI): 14 µM
CC50 (MDA-MB-435 (Melanoma); Homo sapiens, MDA-MB-435, read-out: LC50 (the source's name)): 43 µM
Growth % of the Most Sensitive Cell Lines (MDA-MB-435 (Melanoma); MDA-MB-435, 1 dose 10 µM): −95.56%
IC (TGI) (OVCAR-4 (Ovarian cancer); OVCAR-4, 48 h): 20.8 µM
GI50 (OVCAR-4 (Ovarian cancer); OVCAR-4, read-out: GI50): 5.63 µM
CC50 (OVCAR-4 (Ovarian cancer); OVCAR-4, read-out: LC50 (the source's name)): 63.1 µM
IC (TGI) (Leukemia subpanel; 48 h, read-out: TGI MG_MID): 10.2 µM
GI50 (Leukemia subpanel; read-out: GI50 MG_MID): 3.02 µM
CC50 (Leukemia subpanel; read-out: LC50 MG_MID): 55.5 µM
IC (TGI) (CNS cancer subpanel; 48 h, read-out: TGI MG_MID): 13.5 µM
GI50 (CNS cancer subpanel; read-out: GI50 MG_MID): 4.53 µM
CC50 (CNS cancer subpanel; read-out: LC50 MG_MID): 39.7 µM
GI50 (K-562 (Leukemia); K562): 3.18 µM
IC (TGI) (K-562 (Leukemia); K562, 48 h, read-out: TGI): 10.8 µM
CC50 (K-562 (Leukemia); K562, read-out: LC50): 43.8 µM
GI50 (RPMI-8226 (Leukemia); RPMI-8226): 3.91 µM
IC (TGI) (RPMI-8226 (Leukemia); RPMI-8226, 48 h, read-out: TGI): 14.9 µM
CC50 (RPMI-8226 (Leukemia); RPMI-8226, read-out: LC50): 52.9 µM
GI50 (HOP-92 (NSC lung cancer); HOP-92): 3.1 µM
IC (TGI) (HOP-92 (NSC lung cancer); HOP-92, 48 h, read-out: TGI): 14.6 µM
CC50 (HOP-92 (NSC lung cancer); HOP-92, read-out: LC50): 47 µM
GI50 ([1]; NCI-H226): 4 µM
IC (TGI) ([1]; NCI-H226, 48 h, read-out: TGI): 16.9 µM
CC50 ([1]; NCI-H226, read-out: LC50): 82.2 µM
GI50 ([2]; NCI-H23): 3.15 µM
IC (TGI) ([2]; NCI-H23, 48 h, read-out: TGI): 12.5 µM
CC50 ([2]; NCI-H23, read-out: LC50): 40 µM
GI50 (HCC-2998 (Colon cancer); HCC 2998): 10.1 µM
IC (TGI) (HCC-2998 (Colon cancer); HCC 2998, 48 h, read-out: TGI): 23 µM
CC50 (HCC-2998 (Colon cancer); HCC 2998, read-out: LC50): 52.3 µM
GI50 (HCT-15 (Colon cancer); HCT-15): 4.21 µM
IC (TGI) (HCT-15 (Colon cancer); HCT-15, 48 h, read-out: TGI): 16.4 µM
CC50 (HCT-15 (Colon cancer); HCT-15, read-out: LC50): 45.4 µM
GI50 (SF-539 (CNS cancer); SF-539): 2.69 µM
IC (TGI) (SF-539 (CNS cancer); SF-539, 48 h, read-out: TGI): 9.26 µM
CC50 (SF-539 (CNS cancer); SF-539, read-out: LC50): 33 µM
GI50 (U251 (CNS cancer); U-251): 4.17 µM
IC (TGI) (U251 (CNS cancer); U-251, 48 h, read-out: TGI): 15.9 µM
CC50 (U251 (CNS cancer); U-251, read-out: LC50): 45.5 µM
GI50 (MALME-3M (Melanoma)): 2.64 µM
IC (TGI) (MALME-3M (Melanoma); 48 h, read-out: TGI): 8.01 µM
CC50 (MALME-3M (Melanoma); read-out: LC50): 32.5 µM
GI50 (M14 (Melanoma); M14): 3.91 µM
IC (TGI) (M14 (Melanoma); M14, 48 h, read-out: TGI): 14.8 µM
CC50 (M14 (Melanoma); M14, read-out: LC50): 41.5 µM
GI50 (SK-MEL-2 (Melanoma); SK-MEL-2): 3.31 µM
IC (TGI) (SK-MEL-2 (Melanoma); SK-MEL-2, 48 h, read-out: TGI): 12.2 µM
CC50 (SK-MEL-2 (Melanoma); SK-MEL-2, read-out: LC50): 38.9 µM
GI50 (SK-MEL-28 (Melanoma); SK-MEL-28): 5.87 µM
IC (TGI) (SK-MEL-28 (Melanoma); SK-MEL-28, 48 h, read-out: TGI): 18.4 µM
CC50 (SK-MEL-28 (Melanoma); SK-MEL-28, read-out: LC50): 44 µM
GI50 (UACC-257 (Melanoma); UACC-257): 5.24 µM
IC (TGI) (UACC-257 (Melanoma); UACC-257, 48 h, read-out: TGI): 17 µM
CC50 (UACC-257 (Melanoma); UACC-257, read-out: LC50): 43.8 µM
GI50 (OVCAR-5 (Ovarian cancer); Homo sapiens, OVCAR-5): 1.24 µM
IC (TGI) (OVCAR-5 (Ovarian cancer); Homo sapiens, OVCAR-5, 48 h, read-out: TGI): 25.3 µM
CC50 (OVCAR-5 (Ovarian cancer); Homo sapiens, OVCAR-5, read-out: LC50): 51.6 µM
Growth % of the Most Sensitive Cell Lines (OVCAR-5 (Ovarian cancer); OVCAR-5, 1 dose 10 µM): −98.74%
GI50 (OVCAR-8 (Ovarian cancer); OVCAR-8): 2.55 µM
IC (TGI) (OVCAR-8 (Ovarian cancer); OVCAR-8, 48 h, read-out: TGI): 6.66 µM
CC50 (OVCAR-8 (Ovarian cancer); OVCAR-8, read-out: LC50): 30.8 µM
GI50 [3]: 2.02 µM
IC (TGI) ([3]; 48 h, read-out: TGI): 4.52 µM
CC50 ([3]; read-out: LC50): 10.4 µM
GI50 (SK-OV-3 (Ovarian cancer); SK-OV-3): 14.5 µM
IC (TGI) (SK-OV-3 (Ovarian cancer); SK-OV-3, 48 h, read-out: TGI): 28.6 µM
CC50 (SK-OV-3 (Ovarian cancer); SK-OV-3, read-out: LC50): 56.2 µM
GI50 (SN12C (Renal cancer)): 3.34 µM
IC (TGI) (SN12C (Renal cancer); 48 h, read-out: TGI): 12 µM
CC50 (SN12C (Renal cancer); read-out: LC50): 41.7 µM
GI50 [4]: 14.5 µM
IC (TGI) ([4]; 48 h, read-out: TGI): 29.3 µM
CC50 ([4]; read-out: LC50): 59.2 µM
GI50 (HS 578T (Breast cancer)): 3.2 µM
IC (TGI) (HS 578T (Breast cancer); 48 h, read-out: TGI): 13.2 µM
CC50 (HS 578T (Breast cancer); read-out: LC50): 71.2 µM
Positive Cytotoxic Effect (cell lines with percent growth < 0 / total) ([5]; 1 dose 10 µM): 59/59
number of cancer cell lines the compound was active against ([5]; 1 dose 10 µM): pronounced antiproliferative effect against the whole NCI-60 cancer cell line panel
activity at 10 µM ([5]; Homo sapiens, 48 h, read-out: Mean Growth, %): -77.2%
activity at 10 µM ([5]; Homo sapiens, 48 h, read-out: Range of Growth, %): -99.7 to -5.08%
IC (TGI) ([5]; Homo sapiens, 48 h, read-out: TGI MG_MID60, average over all cell lines): 13.2 µM
GI50 ([5]; Homo sapiens, read-out: GI50 MG_MID60): 4.21 µM
GI50 ([5]; Homo sapiens, read-out: GI50 against all human tumor cell lines): < 15 µM
CC50 ([5]; Homo sapiens, read-out: LC50 MG_MID60, average over all cell lines): 41.9 µM
